Measured values reported in patent US20250353873A1, “COMPOUNDS AND METHODS FOR MODULATING APOE EXPRESSION” (Ionis Pharmaceuticals, Inc., priority 2024, published 2025).
Strand notation (5' to 3'): a small letter for the sugar, then the base; units joined by * are phosphorothioate-linked, units joined directly phosphodiester-linked; [ ] holds rarer units or linkages, { } end groups; capitals alone tell only the bases. [ms] = mesyl phosphoramidate linkage; e = 2'-O-(2-methoxyethyl) (MOE); [5mC] = 5-methylcytosine; d = 2'-deoxy (DNA)

Columns and labels:
human APOE RNA [1] = test: Activity in APOE C57BL/6NTac-Apoeem7250 knock-in mice, single ICV bolus, 20 weeks (Example 13); format: in vivo; conditions: single ICV bolus 300 μg, 20 weeks post treatment, normalized to mouse Ppia
In short: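 Cortical and spinal cord RNA was assayed by real-time RT-PCR for human APOE, normalized to mouse Ppia and reported as percent of PBS controls. Tissue was taken twenty weeks after one 300 μg intracerebroventricular bolus in APOE knock-in mice, 4 per group.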

human APOE RNA [2] = test: Dose-dependent inhibition of human APOE RNA in HepG2 cells, electroporation, 24 hours (Example 6); format: cell-based
In short: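 IC50 derived from APOE RNA levels, given as percent of untreated control after GAPDH normalization (probe sets RTS3073 and RTS104). Oligonucleotides were delivered at multiple concentrations by electroporation into HepG2 cells seeded at 50,000 per well.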

human APOE RNA [3] = test: Activity in APOE 1549 knock-in mice, single ICV bolus, 4 weeks (Example 8); format: in vivo; conditions: n = 2, single ICV bolus of 300 μg, four weeks post treatment, Table 18
Description: Modified oligonucleotides described above were tested in the 1549 APOE knock-in mouse model described above.
APOE knock-in mice were divided into groups of either 2 or 6 mice each as described in the tables below. Each mouse received a single intracerebroventricular (ICV) bolus of 300 μg of modified oligonucleotide. A group of either 3 or 6 mice received a single ICV bolus with PBS as a negative control.
Four weeks post treatment, mice were sacrificed and RNA was extracted from cortical brain tissue and spinal cord for quantitative real-time RT-PCR analysis of RNA expression of APOE using primer probe set RTS3073 (described herein above). APOE RNA levels were normalized to mouse Ppia. Mouse Ppia was amplified using primer probe set m_cyclo24 (described herein above). Results are presented as percent human APOE RNA relative to the amount of human APOE RNA in PBS treated animals, (% control). Each experiment is identified in separate tables below.

human APOE RNA [4] = test: Activity in APOE 1549 knock-in mice, single ICV bolus, 2 weeks (Example 7); format: in vivo; conditions: single ICV bolus of 300 μg, two weeks post treatment
Description: Modified oligonucleotides described above were tested in APOE knock-in mice.
APOE knock-in mice (model 41549) were obtained from Taconic Biosciences. APOE knock-in mice were divided into groups of 2 mice each. Each mouse received a single intracerebroventricular (ICV) bolus of 300 μg of modified oligonucleotide. A group of 4 mice received a single ICV bolus with PBS as a negative control.
Two weeks post treatment, mice were sacrificed and RNA was extracted from cortical brain tissue and spinal cord for quantitative real-time RT-PCR analysis of RNA expression of APOE using primer probe set RTS3073 (described herein above). APOE RNA levels were normalized to mouse Ppia. Mouse Ppia was amplified using primer probe set m_cyclo24 (forward sequence TCGCCGCTTGCTGCA, designated herein as SEQ ID NO: 16; reverse sequence ATCGGCCGTGATGTCGA, designated herein as SEQ ID NO: 17; probe sequence […], designated herein as SEQ ID NO: 18). Results are presented as percent human APOE RNA relative to the amount of human APOE RNA in PBS treated animals, (% control). Each experiment is identified in separate tables below.

human APOE RNA [5] = test: Duration of action study in APOE C57BL/6NTac-Apoeem7250 knock-in mice (Example 16); format: in vivo; conditions: 300 μg ICV
In short: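 Knock-in mice (2-4 per group) received a single ICV bolus of 300 μg oligonucleotide or PBS. At various timepoints, cortex and spinal cord human APOE RNA was measured by RT-qPCR (RTS3073), normalized to mouse Ppia and expressed as % of PBS control.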

human APOE RNA [6] = test: Activity in APOE C57BL/6NTac-Apoeem7250 knock-in mice, single ICV bolus, 8 weeks (Example 11); format: in vivo; conditions: single ICV bolus 300 μg, 8 weeks post treatment, normalized to mouse Ppia
In short: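 Cortical and spinal cord human APOE RNA quantified by RT-qPCR 8 weeks after a single 300 μg ICV dose in knock-in mice, Ppia-normalized. Values are percent of levels in PBS-treated animals.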

human APOE RNA [7] = test: Activity in APOE C57BL/6NTac-Apoeem7250 knock-in mice, single ICV bolus, 16 weeks (Example 12); format: in vivo; conditions: single ICV bolus 300 μg, 16 weeks post treatment, normalized to mouse Ppia
In short: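 A single 300 μg intracerebroventricular dose was given, with PBS-treated mice as reference; cortical and spinal cord tissue was taken 16 weeks later. RT-qPCR quantified human APOE RNA, Ppia-normalized, expressed relative to PBS animals (% control).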

Row | Substance | IC50 (human APOE RNA [2]) | APOE RNA (% UTC) (human APOE RNA [2]; 5 nM) | APOE RNA (% UTC) (human APOE RNA [2]; 13 nM) | APOE RNA (% UTC) (human APOE RNA [2]; 33 nM) | APOE RNA (% UTC) (human APOE RNA [2]; 82 nM) | APOE RNA (% UTC) (human APOE RNA [2]; 205 nM) | APOE RNA (% UTC) (human APOE RNA [2]; 512 nM) | APOE RNA (% UTC) (human APOE RNA [2]; 1,280 nM) | APOE RNA (% UTC) (human APOE RNA [2]; 3,200 nM) | APOE RNA (% UTC) (human APOE RNA [2]; 8,000 nM) | APOE RNA (% UTC) (human APOE RNA [2]; 20,000 nM) | APOE RNA (% control) Cortex (human APOE RNA [3]) | APOE RNA (% control) Spinal Cord (human APOE RNA [3]) | APOE RNA (% control) Cortex (human APOE RNA [4]; Table 16) | APOE RNA (% control) Spinal Cord (human APOE RNA [4]; Table 16) | further results
1 | 1736524: 6-10-4 MOE gapmer CTTGGTGAATCTTTATTAAA, linkages sssooozzssssssssoss (e[5mC]*eT*eT*eGeGeTdG[ms]dA[ms]dA*dT*d[5mC]*dT*dT*dT*dA*dT*eTeA*eA*eA) [compound 1736524] | 1090 nM | 97 % UTC | 101 % UTC | 89 % UTC | 91 % UTC | 66 % UTC | 66 % UTC | 39 % UTC | 34 % UTC | 28 % UTC | 17 % UTC | 36 % control | 31 % control | – | – | APOE RNA (% control) Cortex (human APOE RNA [1]): 67 % control; APOE RNA (% control) Spinal Cord (human APOE RNA [1]): 62 % control
2 | 1736523: 6-10-4 MOE gapmer CTTGGTGAATCTTTATTAAA, linkages ssoooszzssssssssoss (e[5mC]*eT*eTeGeGeT*dG[ms]dA[ms]dA*dT*d[5mC]*dT*dT*dT*dA*dT*eTeA*eA*eA) [compound 1736523] | 670 nM | 97 % UTC | 114 % UTC | 108 % UTC | 79 % UTC | 78 % UTC | 47 % UTC | 29 % UTC | 39 % UTC | 5 % UTC | 4 % UTC | 42 % control | 34 % control | – | – | APOE RNA (% control) Cortex (human APOE RNA [1]): 73 % control; APOE RNA (% control) Spinal Cord (human APOE RNA [1]): 44 % control
3 | 1736520: 6-10-4 MOE gapmer CTTGGTGAATCTTTATTAAA, linkages sossoszzzssssssssss (e[5mC]*eTeT*eG*eGeT*dG[ms]dA[ms]dA[ms]dT*d[5mC]*dT*dT*dT*dA*dT*eT*eA*eA*eA) [compound 1736520] | 570 nM | 109 % UTC | 87 % UTC | 92 % UTC | 72 % UTC | 62 % UTC | 34 % UTC | 28 % UTC | 11 % UTC | 11 % UTC | 83 % UTC | 41 % control | 32 % control | – | – | APOE RNA (% control) Cortex (human APOE RNA [1]): 65 % control; APOE RNA (% control) Spinal Cord (human APOE RNA [1]): 62 % control
4 | 1601956: 6-10-4 MOE gapmer AAGTTCTCCAATCGACGGCT, linkages sooooossssssssssoss (antisense eA*eAeGeTeTe[5mC]dT*d[5mC]*d[5mC]*dA*dA*dT*d[5mC]*dG*dA*d[5mC]*eGeG*e[5mC]*eT) [compound 1601956] | – | – | – | – | – | – | – | – | – | – | – | – | – | 104 % control | 107 % control | –
5 | 1601949: 6-10-4 MOE gapmer CTGCAATGCATTAGAAACCT, linkages sooooossssssssssoss (antisense e[5mC]*eTeGe[5mC]eAeAdT*dG*d[5mC]*dA*dT*dT*dA*dG*dA*dA*eAe[5mC]*e[5mC]*eT) [compound 1601949] | – | – | – | – | – | – | – | – | – | – | – | – | – | 77 % control | 92 % control | –
6 | 1601959: 6-10-4 MOE gapmer CCGTGTCGCTGCCCCTGGCT, linkages sooooossssssssssoss (antisense e[5mC]*e[5mC]eGeTeGeTd[5mC]*dG*d[5mC]*dT*dG*d[5mC]*d[5mC]*d[5mC]*d[5mC]*dT*eGeG*e[5mC]*eT) [compound 1601959] | – | – | – | – | – | – | – | – | – | – | – | – | – | 107 % control | 85 % control | –
7 | 1601948: 6-10-4 MOE gapmer GTTCAAATTCCATCCCCCCA, linkages sooooossssssssssoss (antisense eG*eTeTe[5mC]eAeAdA*dT*dT*d[5mC]*d[5mC]*dA*dT*d[5mC]*d[5mC]*d[5mC]*e[5mC]e[5mC]*e[5mC]*eA) [compound 1601948] | – | – | – | – | – | – | – | – | – | – | – | – | – | 112 % control | 105 % control | –
8 | 1601942: 6-10-4 MOE gapmer CCGTGTTCCATTTATGAGCT, linkages sooooossssssssssoss (antisense e[5mC]*e[5mC]eGeTeGeTdT*d[5mC]*d[5mC]*dA*dT*dT*dT*dA*dT*dG*eAeG*e[5mC]*eT) [compound 1601942] | – | – | – | – | – | – | – | – | – | – | – | – | – | 84 % control | 91 % control | –
9 | 1736521: 6-10-4 MOE gapmer CTTGGTGAATCTTTATTAAA, linkages sosssszzzsssssssoss (e[5mC]*eTeT*eG*eG*eT*dG[ms]dA[ms]dA[ms]dT*d[5mC]*dT*dT*dT*dA*dT*eTeA*eA*eA) [compound 1736521] | 400 nM | 99 % UTC | 109 % UTC | 84 % UTC | 69 % UTC | 65 % UTC | 40 % UTC | 34 % UTC | 18 % UTC | 10 % UTC | 3 % UTC | 52 % control | 50 % control | – | – | –
10 | 1652902: 6-10-4 MOE gapmer CTTGGTGAATCTTTATTAAA, linkages sooooossssssssssoss (antisense e[5mC]*eTeTeGeGeTdG*dA*dA*dT*d[5mC]*dT*dT*dT*dA*dT*eTeA*eA*eA) [compound 1652902] | 70 nM | 88 % UTC | 94 % UTC | 54 % UTC | 44 % UTC | 26 % UTC | 19 % UTC | 10 % UTC | 4 % UTC | 3 % UTC | 2 % UTC | – | – | – | – | APOE RNA (% control) Cortex (human APOE RNA [5]; 14 days post-dose): 43 % control; APOE RNA (% control) Cortex (human APOE RNA [5]; 112 days post-dose): 75 % control; APOE RNA (% control) Spinal Cord (human APOE RNA [5]; 14 days post-dose): 27 % control; APOE RNA (% control) Spinal Cord (human APOE RNA [5]; 112 days post-dose): 32 % control; APOE RNA (% control) Cortex (human APOE RNA [6]; cortex): 44 % control; APOE RNA (% control) Spinal Cord (human APOE RNA [6]; spinal cord): 12 % control; APOE RNA (% control) Cortex (human APOE RNA [7]; cortex): 105 % control; APOE RNA (% control) Spinal Cord (human APOE RNA [7]; spinal cord): 60 % control; APOE RNA (% control) Cortex (human APOE RNA [4]; Table 17): 31 % control; APOE RNA (% control) Spinal Cord (human APOE RNA [4]; Table 17): 171 % control
11 | 1601957: 6-10-4 MOE gapmer TCCTCATTTTAAAGTTCTCC, linkages sooooossssssssssoss (antisense eT*e[5mC]e[5mC]eTe[5mC]eAdT*dT*dT*dT*dA*dA*dA*dG*dT*dT*e[5mC]eT*e[5mC]*e[5mC]) [compound 1601957] | – | – | – | – | – | – | – | – | – | – | – | – | – | 101 % control | 90 % control | –
